Test system: primary cortical neurons injured by glutamate
Assay: Neuroprotection of primary cortical neurons injured by glutamate: neuron survival and neurite network (MAP-2 staining)
Type: cell-based, rat
Settings: for effect on neuritic network / effect on neuron survival: glutamate 40 μM
Method: Rat cortical neurons were cultured as described by Singer et al., (J. Neuroscience, (1999), 19(7), 2455-2463) and Callizot et al. (J. Neurosc., (2013), Res. 91(5), 706-716).
Pregnant females (Wistar; JanvierLabs, St Berthevin, France) at 15 days of gestation were killed by cervical dislocation. Foetuses were collected and immediately placed in ice-cold L15 Leibovitz medium (Pan Biotech, Aidenbach, Germany) with a 2% penicillin (10,000 U/ml) and streptomycin (10 mg/ml) solution (PS; Pan Biotech, Aidenbach, Germany) and 1% bovine serum albumin (BSA; Pan Biotech, Aidenbach, Germany). Cortex was treated for 20 min at 37° C. with a trypsin-EDTA (Pan Biotech, Aidenbach, Germany) solution at a final concentration of 0.05% trypsin and 0.02% EDTA. The dissociation was stopped by addition of Dulbecco's modified Eagle's medium (DMEM) with 4.5 g/liter of glucose (Pan Biotech, Aidenbach, Germany), containing DNAse I grade II (final concentration 0.5 mg/ml; Pan Biotech, Germany) and 10% fetal calf serum (FCS; Invitrogen, Cergy Pointoise, France). Cells were mechanically dissociated by three forced passages through the tip of a 10-ml pipette. Cells were then centrifuged at 515 g for 10 min at 4° C. The supernatant was discarded, and the pellet was resuspended in a defined culture medium consisting of Neurobasal medium (Invitrogen, Cergy Pointoise, France) with a 2% solution of B27 supplement (Invitrogen, Cergy Pointoise, France), 2 mmol/liter of L-glutamine (Pan Biotech, Aidenbach, Germany), 2% of PS solution, and 10 ng/ml of brain-derived neurotrophic factor (BDNF; Pan Biotech, Aidenbach, Germany). Viable cells were counted in a Neubauer cytometer, using the trypan blue exclusion test. The cells were seeded at a density of 30,000 per well in 96-well plates precoated with poly-L-lysine (Corning Biocoat, Tewksbury, USA) and were cultured at 37° C. in an air (95%)-CO2 (5%) incubator. The medium was changed every 2 days. The cortical neurons were intoxicated with glutamate solutions (see below) after 13 days of culture.
On day 13, glutamate (Sigma Aldrich, Lyon, France) was added into cell culture to a final concentration of 40 μM diluted in control medium in presence or absence of test compounds for 20 min. After 20 min, the cells were washed-out and new fresh medium containing or not NSPXX-E2 or NSPXX-E1 extracts was added for 48 h additional time.
After 48 hours of glutamate intoxication, cells were fixed by a cold solution of ethanol (95%, Sigma) and acetic acid (5%, Sigma) for 5 min at −20° C. After permeabilization with 0.1% of saponin (Sigma), cells were incubated for 2 h with mouse monoclonal antibody anti microtubule-associated-protein 2 (MAP-2; Sigma) at dilution of 1/400 in PBS (Pan biotech) containing 1% foetal calf serum (Invitrogen) and 0.1% of saponin.
(§1) For each condition 6 wells were assessed, 30 pictures per well were taken using MetaXpress (molecular device) with 20× magnification (30 pictures at X20 representing ˜80% of the total well surface), to assess neurite network (MAP-2 staining). Analysis of picture was done using MetaXpress custum module editor software (molecular device), the total neurite length per picture was recorded). A mean neurite length of the ten pictures was automatically calculated per well, then one data was provided per well (total of 6 raw data were provided per condition).
as §1, with “magnification” for “magnification (30 pictures at X20 representing ˜80% of the total well surface),”, “cell bodies” for “neurite network”, “number of neurons” for “total neurite length”, “recorded.” for “recorded).”, “of neuron number” for “neurite length”
All values were expressed as mean+/−s.e.mean. […]

C[C@@H]1CC[C@@]2(OC1)O[C@H]1C[C@H]3[C@@H]4CC=C5C[C@@H](O[C@@H]6O[C@H](CO)[C@@H](O[C@@H]7O[C@@H](C)[C@H](O)[C@@H](O)[C@H]7O)[C@H](O)[C@H]6O[C@@H]6O[C@@H](C)[C@H](O)[C@@H](O)[C@H]6O)CC[C@]5(C)[C@H]4CC[C@]3(C)[C@H]1[C@@H]2C [DIOS, dioscin]
effect on neuritic network (6.3 nM-630 nM, 20 min): significant protective effect

C[C@@H]1CC[C@@]2(OC1)O[C@H]1C[C@H]3[C@@H]4CC=C5C[C@@H](O)CC[C@]5(C)[C@H]4CC[C@]3(C)[C@H]1[C@@H]2C [DIOSG, diosgenin]
effect on neuritic network (3 pM-30 pM, 20 min): significant protective effect | reduction of the concentration of diosgenin compared to diosgenin used alone (diosgenin combined with caffeic acid or ferulic acid): 10 fold

COc1cc(/C=C/C(=O)O)ccc1O [FA, ferulic acid]
effect on neuritic network (1 μM-100 μM, 20 min): significant protective effect

O=C(O)c1cc(O)c(O)c(O)c1 [Gallic acid, gallic acid]
viability at 10 µM (Rattus norvegicus, Primary cortical neuron, 20 min): ~80% | effect on neuritic network (between 10 pM and 1 μM, 20 min): significant protective effect

C[C@H]1CC[C@@]2(OC1)O[C@H]1C[C@H]3[C@@H]4CC[C@@H]5C[C@@H](O)CC[C@]5(C)[C@H]4CC[C@]3(C)[C@H]1[C@@H]2C [SAR, sarsasapogenin]
effect on neuritic network (100 pM-100 nM, 20 min): protective effect | effect on neuron survival (100 nM, 20 min): significant protective effect | toxicity for cortical neurons and for neuritic network (1 μmol/L or 10 μmol/L): toxic | toxicity on cortical neurons (at the highest concentrations tested): toxic | effect on neuritic network (between 100 pM and 10 nM, 20 min): significant protective effect | reduction of the steroidal saponin concentration compared to sarsasapogenin used alone (sarsasapogenin combined with caffeic acid or ferulic acid): 10 fold

O=c1c(O)c(-c2ccc(O)c(O)c2)oc2cc(O)cc(O)c12 [quercetin]
effect on neurite network (100 nM and 1 μM, glutamate injury): significant protective effect

catechin
effect on neuritic network (1 nM-1 μM, 20 min): protective effect | effect on neuron survival (between 100 nM and 1 μM, 20 min): significant protective effect | effect on neuritic network (between 500 nM and 5 μM, 20 min): significant protective effect

From patent publication US11951113B2, “Synergestic combination composition comprising a steroidal saponin, a first polyphenolic compound and a second polyphenolic compound” (NEURALIA, priority 2018, dated 2024)
